Measurements as given in patent publication US11993574B2, “Pyrazole and imidazole compounds for inhibition of IL-17 and RORgamma” (REATA PHARMACEUTICALS, INC., priority 2018, dated 2024).

How the values were obtained:
Assay type in all cases: cell-based
[1] = test system: Nrf2 transcription factor; experiment: AREc32 luciferase reporter assay; conditions: Homo sapiens; AREc32 cells, 19 hours; concentration required to increase GST ARE luciferase reporter activity by 2-fold; read-out: NRF2 ARE 2-Fold (EC2×)
Outline: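 AREc32 cells (MCF-7 with firefly luciferase under eight rat GSTA2 ARE copies) treated 19 h with compound (0.4-200 nM or 3.9-2000 nM) in triplicate. Luminescence normalized to DMSO as fold-induction, capped at 50-fold. EC2× = concentration giving 2-fold reporter increase, interpolated from variable-slope fit.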

[2] = target: T1, Human RAR-related Orphan Receptor Gamma (RORγ) (Homo sapiens, UniProt P51449); experiment: RORγ assay (GAL4-RORγ hybrid luciferase reporter, Indigo Biosciences); conditions: inverse-agonist activity, GAL4-RORγ reporter cells, 23 hours
T1 sequence (P51449 269-508 limits assumed): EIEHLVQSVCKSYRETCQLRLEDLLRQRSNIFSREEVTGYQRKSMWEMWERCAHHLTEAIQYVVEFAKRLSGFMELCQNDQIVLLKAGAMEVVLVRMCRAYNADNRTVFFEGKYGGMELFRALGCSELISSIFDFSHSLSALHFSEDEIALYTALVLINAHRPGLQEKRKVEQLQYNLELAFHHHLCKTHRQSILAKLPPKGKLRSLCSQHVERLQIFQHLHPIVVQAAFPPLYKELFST
Outline: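 […]engineered human reporter cell line expressing GAL4-DBD/RORγ-LBD hybrid with GAL4-UAS luciferase; constitutive activity measured as inverse agonism. Cells treated with compound (7.8-2000 nM) for 23 h at 37 °C; luminescence normalized to DMSO, IC50 by variable-slope fit, with parallel viability readout to flag non-specific inhibition.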

[3] = test system: IL-17A; experiment: IL-17 release from differentiated primary human T-cells (IL-17A HTRF assay); conditions: primary human CD4+ T cells differentiated into Th17 cells, 45-hour incubation, IL-17A in supernatant; read-out: hIL17 IC50
Outline: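 Primary human CD4+ T cells (~2×10^5/well) given compound (2–500 or 4–1000 nM, 0.1% DMSO), CD3/CD28-activated and Th17-differentiated (TGF-β, IL-6, IL-23, IL-1β) for 45 h at 37° C. Supernatant IL-17A by HTRF against standard curve, normalized to vehicle; IC50 by variable-slope regression, with parallel CyQuant viability.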

SMILES	IC50 [2] [nM]	IC50 [3] [nM]	EC (2-fold) [1] [µM]
Cc1cnnc(-c2ccc(-n3nc(-c4ccc(F)cc4)c4c3[C@]3(C)C=C(C#N)C(=O)[C@H](C)[C@H]3CC4)cc2)c1 [T179]	37	45	0.232
Cc1nc(-c2ccc(-n3nc(-c4ccc(F)cc4)c4c3[C@]3(C)C=C(C#N)C(=O)[C@H](C)[C@H]3CC4)cc2)no1 [T182]	96	32	0.249
C[C@H]1C(=O)C(C#N)=C[C@@]2(C)c3c(c(-c4ccc(F)cc4)nn3-c3ccc(-c4ncon4)cc3)CC[C@H]12 [T183]	113	68	0.526

Now from value to compound, other results behind:

IC50 [2] [nM]	IC50 [3] [nM]	SMILES	EC (2-fold) [1] [µM]
55	49	C[C@H]1C(=O)C(C#N)=C[C@@]2(C)c3c(c(-c4cccnc4)nn3-c3ccc(-c4ccnc(CF)c4)cc3)CC[C@H]12 [T180]	0.308
60	24	C[C@H]1C(=O)C(C#N)=C[C@@]2(C)c3c(c(-c4ccc(F)cc4)nn3-c3ccc(-c4ccnc(CF)c4)cc3)CC[C@H]12 [T181]	0.25
116	76	Cc1nc(-c2ccc(-n3nc(-c4cccnc4)c4c3[C@]3(C)C=C(C#N)C(=O)[C@H](C)[C@H]3CC4)cc2)no1 [T184]	0.398
